Source: patent US6461610B1, “Methods for modifying cell motility using factor VIIa or inactivated factor VIIa” (Novo Nordisk A/S, priority 1997, dated 2002)

How the values were obtained:
human TF = experiment: SRE/STAT luciferase reporter (KZ136) in BHK cells stably transfected with human TF; format: cell-based; conditions: 50 μM PD98059 for one hour prior to 100 nM FVIIa
From the text: BHK cells with and without stably transfected TF were stably transfected with KZ136 (reporter construct encoding 2×STAT1,3), 2×(STAT4,5,6) and a serum response element (SRE) upstream to a luciferase reporter gene) were stimulated with FVIIa. Only cells expressing TF responded to FVIIa in a dose dependent manner.
PD98059 is a specific inhibitor of MEK1, a kinase specifically involved in the p44/p42 MAPK cascade.
BHK cells stably transfected with the human TF and the reporter plasmid KZ136 were grown to 90% confluence, starved in DMEM with 0.1% FCS for 16 hours and then stimulated with FVIIa or FVIIai (FIG. 8). […] Also shown in FIG. 8 is an experiment where competition between FVIIa and FVIIai was studied. FVIIai was added to the cells 1 hour prior to stimulation with 20 nM FVIIa. The response induced by 20 nM FVIIa was inhibited 27%, 59%, 77%, and 91% by the addition of 20 nM, 50 nM, 100 nM, and 500 nM FVIIai, respectively.

[1] = test system: human foreskin fibroblasts AG1523; experiment: Chemotaxis assay, modified Boyden chamber, PDGF-BB induced migration of fibroblasts; format: cell-based; conditions: for effect of inhibitor on FVIIa/TF hyperchemotactic response to PDGF-BB: 30 min pretreatment; for migration of fibroblast in response to PDGF without FVIIa: without the ligand FVIIa
Protocol: Chemotaxis assay. The migration response of fibroblasts was assayed by means of the leading front technique in a modified Boyden chamber, as previously described (Nister et al., Cell 52, 791-799 (1988); Siegbahn et al. J. Clin. Invest. 85, 916-920 (1990)). Micropore filters (pore size 8 μm) were coated with a solution of type-i collagen at room temperature over night. The filters were air dried for 30 minutes immediately before use.
Human foreskin fibroblasts AG1523 were grown to confluence in Eagle's MEM supplemented with 10% FBS. The cells were detached by trypsinization (2.5 mg/ml for 10 minutes at 37° C.) and suspended in Eagle's MEM with 10% FBS. The fibroblasts were incubated for 10 minutes with or without FVIIa or FFR-FVIIa before assay. One hundred microliters of the cell suspension (2×10^5 cells/ml) was added above the filter of the Boyden chamber. PDGF-BB was diluted in assay media (Eagle's MEM with 10% FBS) and added below the filter in the chamber. The cells were incubated for 6 hours at 37° C. in a humidified chamber containing 95% air/5% CO2. FVIIa or FFR-FVIIa were present during the entire experiment. The filters were then removed, fixed in ethanol, stained with Mayer's Hemalun, and mounted. Migration was measured as the distance of the two furthest migrating fibroblast nuclei of one high-power field (12.5×24) in focus. The migration distance in each filter was calculated as the mean of the readings of at least three different parts of the filter. Experiments were performed with two to four separate filters for each concentration of chemoattractant. For each set of experiments, the migration of fibroblasts toward the assay media served as control. In cases when anti-TF monoclonal antibodies or inhibitors to coagulation factors, TAP and Hirudin, were used, cells were preincubated for 10 minutes with these agents, then with or without FVIIa or FFR-FVIIa before the chemotaxis assay was performed. Antibodies, TAP or Hirudin were also present during the entire chemotaxis experiment. In experiments where the effects on the migration response of different inhibitors, LY294002, U73122 or U73343, were tested, cells were preincubated for 30 minutes with the inhibitors at indicated concentrations, and the inhibitors were also present throughout the experiments.
Fibroblasts expressing active TF (FIG. 11) were incubated with 100 nM of FVIIa and seeded in the upper part of the modified Boyden chamber; while media containing 10% FBS and PDGF-BB at different concentrations were added below the […] micropore filter. The migration of the cells under conditions where medium containing 10% FBS without PDGF-BB was added below the filter was used as a measure of random migration, and calculated as 100% migration.

[2] = biological target: T1, factor VIIa/tissue factor complex (Homo sapiens, UniProt P08709); experiment: TF-stimulated factor VIIa activity with chromogenic substrate S2288, zinc ion inhibition; format: biochemical; conditions: 0.2 mM cystin dihydroxamate; 10 nM FVIIa, 50 nM TF1-218
T1 construct: TF1-218 from Dr W. Kisiel, University of New Mexico
T1 sequence (P08709 61-212 limits assumed): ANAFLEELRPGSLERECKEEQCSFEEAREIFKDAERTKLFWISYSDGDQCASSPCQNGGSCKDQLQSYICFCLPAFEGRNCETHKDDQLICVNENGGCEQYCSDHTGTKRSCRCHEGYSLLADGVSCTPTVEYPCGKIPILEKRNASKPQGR
T1 sequence (P08709 213-466 limits assumed): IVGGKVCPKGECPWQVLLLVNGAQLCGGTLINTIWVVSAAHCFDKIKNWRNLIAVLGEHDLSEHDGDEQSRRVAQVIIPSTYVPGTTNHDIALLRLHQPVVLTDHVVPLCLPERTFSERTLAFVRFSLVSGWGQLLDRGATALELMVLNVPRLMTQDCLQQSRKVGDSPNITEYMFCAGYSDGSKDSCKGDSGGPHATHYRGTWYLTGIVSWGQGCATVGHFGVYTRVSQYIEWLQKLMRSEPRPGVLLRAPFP
Protocol: Factor VIIa activity was measured with the chromogenic substrate S2288 (H-D-Ile-Pro-Arg-p-nitroanilide). The activity of 10 nM FVIIa in the presence of 50 nM TF1-218 (Dr W. Kisiel, University of New Mexico, Albuquerque, N. Mex.) was measured in buffer containing 50 mM TrisCl pH 7.4 0.1 M NaCl, 1 mM CaCl2, 0.05% Tween 20 and 0.4 mM S2288. The activity was measured at room temperature as the change in absorbance at 405 nm.

MAPK p44/42 = experiment: Western blot of phosphorylated MAPK p44/42 in BHK cells stably transfected with human TF; format: cell-based; conditions: 100 nM for 5 min
Protocol: In this set of experiments with TF transfected BHK, ECV-304 and MDCK cell lines two antibodies raised against the MAPK were used, one targeting activated as well as non-activated forms of MAPK, and another, targeting only the activated (phosphorylated) form of MAPK.
BHK cells stable transfected with human TF were grown to 90% confluence and starved in DMEM with 0. 1% FCS for 24 hours prior to stimulation with FVIIa. Samples for Western blotting were sampled at 0, 3, 5, 7, 10, 20 and 40 minutes after addition of 100 nM FVIIa. […] Over the next 10 minutes the response declined to reach the background level at about 20 minutes after addition of FVIIa.
In this set of experiments with TF transfected BHK cell lines we used a phospho-specific antibody against phosphorylated (Thr202/Tyr204) p44/42 MAPK and an antibody targeting total p44/42 MAPK (New Englands Biolabs, Beverly, Mass.).
BHK cells stable transfected with human TF were grown to 90% confluence and starved in DMEM with 0.1% FCS for 24 hours prior to stimulation. In FIG. 9A the cells were stimulated with 100 nM FVIIa for 0, 3, 5, 7, 10 and 40 minutes before the cells were lysed and samples for Western blotting were taken.
The results shown in FIG. 9B were obtained when BHK(+TF) cells were exposed to 100 nM FVII, FVIIa, FVIIai, [Ala344]FVII or FXa for 5 min. […]

[3] = 100 nM FVIIa, 0.1 ng/ml PDGF-BB

COc1cccc(-c2cc(=O)c3ccccc3o2)c1N [PD98059]
reporter response to 100 nM FVIIa after inhibitor pre-treatment (human TF): did not respond

COc1ccc2c(c1)CC[C@@H]1[C@@H]2CC[C@]2(C)[C@@H](NCCCCCCN3C(=O)C=CC3=O)CC[C@@H]12 [Example U73122]
inhibitor concentration giving total inhibition of hyperchemotactic response [1, 3]: 1 µM
effect of inhibitor on FVIIa/TF hyperchemotactic response to PDGF-BB [1, 3]: inhibited

Hirudin
effect on FVIIa/TF induced hyperchemotaxis ([1]; 5 U/ml Hirudin, 100 nM FVIIa): had no any effect
migration of fibroblast in response to PDGF without FVIIa [1]: did not influence

TAP: Tick anticoagulant peptide, specifically blocks the active site of FXa (YNRLCIKPRDWIDECDSNEGGERAYFRNGKGGCDSFWICPEDHTGADYYSSYRDCFNACI; UniProt P17726 1-60, looked up)
effect on enhanced migration response transduced by FVIIa/TF ([1]; 0.2-10 μM TAP, 100 nM FVIIa): not blocked
migration of fibroblast in response to PDGF without FVIIa [1]: did not influence

N[C@@H](CSSC[C@H](N)C(=O)NO)C(=O)NO [cystindihydroxamate, L-Cystine dihydroxamate]
effect of zinc ions to abolish FVIIa-TF complex formation / activity in presence of chelator [2]: profoundly potentiated

COc1ccc2c(c1)CC[C@@H]1[C@@H]2CC[C@]2(C)[C@@H](NCCCCCCN3C(=O)CCC3=O)CC[C@@H]12 [Example U73343]
effect of inhibitor on FVIIa/TF hyperchemotactic response to PDGF-BB [1, 3]: No effect

B1: [Ala344]FVII: FVII with Ala at catalytic residue 344 (protein, UniProt P08709 1-466, looked up, variant S344A)
chain: MVSQALRLLCLLLGLQGCLAAGGVAKASGGETRDMPWKPGPHRVFVTQEEAHGVLHRRRRANAFLEELRPGSLERECKEEQCSFEEAREIFKDAERTKLFWISYSDGDQCASSPCQNGGSCKDQLQSYICFCLPAFEGRNCETHKDDQLICVNENGGCEQYCSDHTGTKRSCRCHEGYSLLADGVSCTPTVEYPCGKIPILEKRNASKPQGRIVGGKVCPKGECPWQVLLLVNGAQLCGGTLINTIWVVSAAHCFDKIKNWRNLIAVLGEHDLSEHDGDEQSRRVAQVIIPSTYVPGTTNHDIALLRLHQPVVLTDHVVPLCLPERTFSERTLAFVRFSLVSGWGQLLDRGATALELMVLNVPRLMTQDCLQQSRKVGDSPNITEYMFCAGYSDGSKDSCKGDAGGPHATHYRGTWYLTGIVSWGQGCATVGHFGVYTRVSQYIEWLQKLMRSEPRPGVLLRAPFP
activation (phosphorylation) of p44/42 MAPK (MAPK p44/42): no significant activation
